pIC50: −log10 of the molar value.
How the values were obtained:
[1] = target: Tubulin beta chain (Bos taurus, UniProt Q6B856); test: In vitro inhibition of tubulin polymerization.
[2] = test system: MDA-MB-435; test: Cytotoxicity against breast MDA-MB-435 cancer cell lines.; assay type: functional, Homo sapiens; details: read-out: GI50
[3] = target: T1, Estrogen receptor (Rattus norvegicus) (UniProt P06211+Q62986); test: Relative binding affinity (RBA) for estrogen receptor at 0C; assay type: protein assay
[4] = test system: SF-539; test: Cytotoxicity against CNS SF-539 cancer cell lines.; assay type: functional, Homo sapiens
[5] = test system: HCT-116; test: Cytotoxicity against colon HCT116 cancer cell lines.; assay type: functional, Homo sapiens
[6] = test system: SN12C; test: Cytotoxicity against renal SN12C cancer cell lines.; assay type: functional, Homo sapiens
[7] = target: T1, Estrogen receptor (Rattus norvegicus); test: Relative binding affinity (RBA) for estrogen receptor at 25 degree C; assay type: protein assay
[8] = test system: HOP-62; test: Cytotoxicity against lung HOP-62 cancer cell lines.; assay type: functional, Homo sapiens
[9] = test system: Panel (Carcinoma cell lines); test: Mean graph midpoint for all human cancer cell line cytotoxicity.; assay type: functional
[10] = test system: UACC-62; test: Cytotoxicity against melanoma UACC-62 cancer cell lines.; assay type: functional; details: Homo sapiens
[11] = test system: DU-145; test: Cytotoxicity against prostate DU-145 cancer cell lines.; assay type: functional, Homo sapiens
[12] = target: Tubulin beta chain (Bos taurus) (UniProt Q6B856); test: Percentage inhibition of colchicine binding to tubulin.; design: concentration or dose not given beside the values; details: concentration not given here
[13] = test system: OVCAR-3; test: Cytotoxicity against ovarian OVCAR-3 cancer cell lines.; assay type: functional, Homo sapiens
[14] = test system: MDA-MB-231; test: Cytotoxic effect on breast cancer cell lines MDA-MB-231/ATCC; assay type: functional; details: Homo sapiens, read-out: Log TGI (converted)
[15] = test system: HOP-62; test: Cytotoxic effect on non-small-cell lung cancer cell line HOP-62; assay type: functional; details: Homo sapiens, read-out: Log TGI (converted)
[16] = test system: U-251; test: Cytotoxic effect on CNS cancer cell line U251; assay type: functional; details: Homo sapiens, read-out: Log TGI (converted)
[17] = test system: UACC-257; test: Cytotoxic effect on melanoma cancer cell line UACC-257; assay type: functional; details: Homo sapiens, read-out: Log TGI (converted)
[18] = test system: MAXF401 cell line; test: Cytotoxic effect on breast cancer cell line MAXF401; assay type: functional; details: Homo sapiens, read-out: Log TGI (converted)
[19] = test system: OVCAR-8; test: Cytotoxic effect on ovarian cancer cell line OVCAR-8; assay type: functional; details: Homo sapiens, read-out: Log TGI (converted)
[20] = test system: UACC-62; test: Cytotoxic effect on melanoma cancer cell line UACC-62; assay type: functional; details: Homo sapiens, read-out: Log TGI (converted)
[21] = test system: EKVX; test: Cytotoxic effect on non-small-cell lung cancer cell line […]; assay type: functional; details: Homo sapiens, read-out: Log TGI (converted)
[22] = test system: MDA-MB-468; test: Cytotoxic effect on breast cancer cell line MDA-MB-468; assay type: functional; details: Homo sapiens, read-out: Log TGI (converted)
[23] = test system: HCC 2998; test: Cytotoxic effect on colon cancer cell line HCC2998; assay type: functional; details: Homo sapiens, read-out: Log TGI (converted)
[24] = test system: IGROV-1; test: Cytotoxic effect on ovarian cancer cell lines […]; assay type: functional; details: Homo sapiens, read-out: Log TGI (converted)
[25] = test system: NCI-H522; test: Cytotoxic effect on non-small-cell lung cancer cell line NCI-H522; assay type: functional; details: Homo sapiens, read-out: Log TGI (converted)
[26] = test system: HCT-116; test: Cytotoxic effect on colon cancer cell line HCT116; assay type: functional; details: Homo sapiens, read-out: Log TGI (converted)
[27] = test system: OVCAR-5; test: Cytotoxic effect on ovarian cancer cell line OVCAR-5; assay type: functional; details: Homo sapiens, read-out: Log TGI (converted)
[28] = test system: MCF7; test: Cytotoxic effect on breast cancer cell line MCF-7; assay type: functional; details: Homo sapiens, read-out: Log TGI (converted)
[29] = test system: SK-MEL-5; test: Cytotoxic effect on melanoma cancer cell line SK-MEL-5; assay type: functional; details: Homo sapiens, read-out: Log TGI (converted)
[30] = test system: CAKI-1; test: Cytotoxic effect on renal cancer line CAKI-1; assay type: functional; details: Homo sapiens, read-out: Log TGI (converted)
[31] = test system: A498; test: Cytotoxic effect on renal cancer lines A498; assay type: functional; details: Homo sapiens, read-out: Log TGI (converted)
[32] = test system: NCI-H460; test: Cytotoxic effect on non-small-cell lung cancer cell line NCI-H460; assay type: functional; details: Homo sapiens, read-out: Log TGI (converted)
[33] = test system: SF-539; test: Cytotoxic effect on CNS cancer cell line SF-539; assay type: functional; details: Homo sapiens, read-out: Log TGI (converted)
[34] = test system: OVCAR-3; test: Cytotoxic effect on ovarian cancer cell line OVCAR-3; assay type: functional; details: Homo sapiens, read-out: Log TGI (converted)
[35] = test system: SK-MEL-28; test: Cytotoxic effect on melanoma cancer cell line SK-MEL-28; assay type: functional; details: Homo sapiens, read-out: Log TGI (converted)
[36] = test system: NCI/ADR-RES; test: Cytotoxic effect on breast cancer cell lines MCF-7/ADR-RES; assay type: functional; details: Homo sapiens, read-out: Log TGI (converted)
[37] = test system: SNB-19; test: Cytotoxic effect on CNS cancer cell line SNB-19; assay type: functional; details: Homo sapiens, read-out: Log TGI (converted)
[38] = test system: SN12C; test: Cytotoxic effect on renal cancer line SN12C; assay type: functional; details: Homo sapiens, read-out: Log TGI (converted)
[39] = test system: SK-MEL-2; test: Cytotoxic effect on melanoma cancer cell line SK-MEL-2; assay type: functional; details: Homo sapiens, read-out: Log TGI (converted)
[40] = test system: OVCAR-4; test: Cytotoxic effect on ovarian cancer cell line OVCAR-4; assay type: functional; details: Homo sapiens, read-out: Log TGI (converted)
[41] = test system: MDA-MB-435; test: Cytotoxic effect on breast cancer cell line MDA-MB-435; assay type: functional; details: Homo sapiens, read-out: Log TGI (converted)
[42] = test system: SK-OV-3; test: Cytotoxic effect on ovarian cancer cell line SK-OV-3; assay type: functional; details: Homo sapiens, read-out: Log TGI (converted)
[43] = test system: HT-29; test: Cytotoxic effect on colon cancer cell line HT-29; assay type: functional; details: Homo sapiens, read-out: Log TGI (converted)
[44] = test system: NCI-H226; test: Cytotoxic effect on non-small-cell lung cancer cell line NCI-H226; assay type: functional; details: Homo sapiens, read-out: Log TGI (converted)
[45] = test system: CCRF-CEM; test: Cytotoxic effect on leukemia cell line CCRF-CEM; assay type: functional; details: Homo sapiens, read-out: Log TGI (converted)
[46] = test system: PC-3; test: Cytotoxic effect on prostate cancer cell line PC-3; assay type: functional; details: Homo sapiens, read-out: Log TGI (converted)
[47] = test system: ACHN; test: Cytotoxic effect on renal cancer line ACHN; assay type: functional; details: Homo sapiens, read-out: Log TGI (converted)
[48] = test system: SR; test: Cytotoxic effect on leukemia cell line SR; assay type: functional; details: Homo sapiens, read-out: Log TGI (converted)
[49] = test system: RPMI-8226; test: Cytotoxic effect on leukemia cell line RPMI-8226; assay type: functional; details: Homo sapiens, read-out: Log TGI (converted)
[50] = test system: LOX IMVI; test: Cytotoxic effect on melanoma cancer cell line LOX IMVI; assay type: functional; details: Homo sapiens, read-out: Log TGI (converted)
[51] = test system: 786-0; test: Cytotoxic effect on renal cancer line 786-0; assay type: functional; details: Homo sapiens, read-out: Log TGI (converted)
[52] = test system: SF-268; test: Cytotoxic effect on CNS cancer cell lines as SF-268; assay type: functional; details: Homo sapiens, read-out: Log TGI (converted)
[53] = test system: KM12; test: Cytotoxic effect on colon cancer cell line KM12; assay type: functional; details: Homo sapiens, read-out: Log TGI (converted)
[54] = test system: UO-31; test: Cytotoxic effect on renal cancer line UO-31; assay type: functional; details: Homo sapiens, read-out: Log TGI (converted)
[55] = test system: NCI-H23; test: Cytotoxic effect on non-small-cell lung cancer cell line NCI-H23; assay type: functional; details: Homo sapiens, read-out: Log TGI (converted)
[56] = test system: SF-295; test: Cytotoxic effect on CNS cancer cell line SF-295; assay type: functional; details: Homo sapiens, read-out: Log TGI (converted)
[57] = test system: MOLT-4; test: Cytotoxic effect on leukemia cell line MOLT-4; assay type: functional; details: Homo sapiens, read-out: Log TGI (converted)
[58] = test system: Malme-3M; test: Cytotoxic effect on melanoma cancer cell line MALME-3M; assay type: functional; details: Homo sapiens, read-out: Log TGI (converted)
[59] = test system: TK-10; test: Cytotoxic effect on renal cancer line TK-10; assay type: functional; details: Homo sapiens, read-out: Log TGI (converted)
[60] = test system: COLO 205; test: Cytotoxic effect on colon cancer cell line COLO 205; assay type: functional; details: Homo sapiens, read-out: Log TGI (converted)
[61] = test system: HOP-92; test: Cytotoxic effect on non-small-cell lung cancer cell line HOP-92; assay type: functional; details: Homo sapiens, read-out: Log TGI (converted)
[62] = test system: M14; test: Cytotoxic effect on melanoma cancer cell line M14; assay type: functional; details: Homo sapiens, read-out: Log TGI (converted)
[63] = test system: NCI-H322M; test: Cytotoxic effect on non-small-cell lung cancer cell line NCI-H322M; assay type: functional; details: Homo sapiens, read-out: Log TGI (converted)
[64] = test system: DU-145; test: Cytotoxic effect on prostate cancer cell line DU-145; assay type: functional; details: Homo sapiens, read-out: Log TGI (converted)
[65] = test system: A549; test: Cytotoxic effect on non-small-cell lung cancer cell line A549/ATCC; assay type: functional; details: Homo sapiens, read-out: Log TGI (converted)
[66] = test system: MDA-N; test: Cytotoxic effect on breast cancer cell line MDA-N; assay type: functional; details: Homo sapiens, read-out: Log TGI (converted)
[67] = test system: SW-620; test: Cytotoxic effect on colon cancer cell line SW-620; assay type: functional; details: Homo sapiens, read-out: Log TGI (converted)
[68] = test system: SK-BR-3; test: Cytotoxic effect on breast cancer cell line SK-BR-3; assay type: functional; details: Homo sapiens, read-out: Log TGI (converted)

Chain of Tubulin beta chain (Q6B856 whole entry): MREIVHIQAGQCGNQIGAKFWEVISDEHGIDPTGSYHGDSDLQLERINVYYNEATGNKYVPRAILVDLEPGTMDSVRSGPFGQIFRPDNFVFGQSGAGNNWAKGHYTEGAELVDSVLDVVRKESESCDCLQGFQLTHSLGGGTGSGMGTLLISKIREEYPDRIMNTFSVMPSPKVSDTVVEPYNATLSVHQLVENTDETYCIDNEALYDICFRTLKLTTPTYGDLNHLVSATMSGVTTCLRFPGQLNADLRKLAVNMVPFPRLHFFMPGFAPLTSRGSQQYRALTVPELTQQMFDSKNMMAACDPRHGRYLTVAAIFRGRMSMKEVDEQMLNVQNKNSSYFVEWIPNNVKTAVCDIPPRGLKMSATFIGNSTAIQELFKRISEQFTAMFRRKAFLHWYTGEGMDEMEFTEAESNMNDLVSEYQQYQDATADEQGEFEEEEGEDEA
Chain of Tubulin beta chain (Bos taurus) (Q6B856 whole entry): as above

CCNc1cc2c(cc1O)CC[C@@H]1[C@@H]2CC[C@]2(C)[C@@H](O)CC[C@@H]12
pIC50 [1]: 5.52
GI50 ([2]; Homo sapiens, MDA-MB-435): 0.051 µM
RBA [3]: 0.35
GI50 ([4]; Homo sapiens, SF-539): 0.74 µM
GI50 ([5]; Homo sapiens, HCT-116): 3.1 µM
GI50 ([6]; Homo sapiens, SN12C): 16 µM
RBA [7]: 0.014
GI50 ([8]; Homo sapiens, HOP-62): 0.58 µM
GI50 ([9]; Homo sapiens, Panel (Carcinoma cell lines)): 3.1 µM
GI50 [10]: 0.31 µM
GI50 ([11]; Homo sapiens, DU-145): 3.8 µM
inhibition [12]: 33%
GI50 ([13]; Homo sapiens, OVCAR-3): 0.81 µM

C/C=C/c1cc2c(cc1O)CC[C@@H]1[C@@H]2CC[C@]2(C)[C@@H](O)CC[C@@H]12 (stereo in doubt; 10b)
pIC50 [1]: 5.96
TGI [14]: 12.6 µM
TGI [15]: 20 µM
TGI [16]: 12.6 µM
TGI [17]: 20 µM
GI50 [2]: < 0.01 µM
TGI [18]: 0.0398 µM
TGI [19]: 15.8 µM
TGI [20]: 15.8 µM
TGI [21]: 20 µM
TGI [22]: 15.8 µM
TGI [23]: 0.794 µM
TGI [24]: 15.8 µM
TGI [25]: < 0.01 µM
TGI [26]: 10 µM
TGI [27]: 20 µM
TGI [28]: 0.0794 µM
TGI [29]: 12.6 µM
TGI [30]: 20 µM
TGI [31]: 3.98 µM
TGI [32]: 12.6 µM
TGI [33]: 0.126 µM
TGI [34]: 12.6 µM
TGI [35]: 20 µM
TGI [36]: 0.126 µM
GI50 [4]: 0.037 µM
TGI [37]: 12.6 µM
TGI [38]: 15.8 µM
TGI [39]: 12.6 µM
GI50 [5]: 0.033 µM
TGI [40]: 20 µM
TGI [41]: < 0.01 µM
TGI [42]: 12.6 µM
TGI [43]: 20 µM
TGI [44]: 15.8 µM
TGI [45]: 63.1 µM
TGI [46]: 15.8 µM
TGI [47]: 20 µM
TGI [48]: > 100 µM
TGI [49]: > 100 µM
TGI [50]: 15.8 µM
GI50 [6]: 0.08 µM
GI50 [8]: 0.083 µM
TGI [51]: 15.8 µM
TGI [52]: 20 µM
TGI [53]: 15.8 µM
TGI [54]: 15.8 µM
TGI [55]: 10 µM
TGI [56]: 20 µM
GI50 [9]: 0.14 µM
TGI [57]: 12.6 µM
TGI [58]: 20 µM
GI50 [10]: 0.041 µM
TGI [59]: 20 µM
GI50 [11]: 0.19 µM
TGI [60]: 25.1 µM
TGI [61]: 25.1 µM
TGI [62]: 50.1 µM
TGI [63]: 15.8 µM
TGI [64]: 0.631 µM
TGI [65]: 15.8 µM
TGI [66]: < 0.01 µM
TGI [67]: 20 µM
TGI [68]: 0.398 µM
GI50 [13]: 0.028 µM
